Data published in patent US20220031670A1, “PHARMACEUTICAL COMBINATIONS FOR USE IN THE TREATMENT OF NEOPLASTIC DISEASES” (Basilea Pharmaceutica International AG, priority 2018, published 2022).
Marks after values point to notes of the source that are not given here.

Tests used:
[1] = Tolerability (body weight, mortalities) in the PAXF1657 pancreatic xenograft model
Method: Animals were housed in individually ventilated cages ([…] Sealsafe™-IVC-System, […], Hohenpeissenberg, Germany), depending on group size, either in type III or type II long cages. They were kept under a 14 L:10D artificial light cycle. The temperature inside the cages was maintained at 25±1° C. with a relative humidity of 40-70% and an air change (AC) rate in the cage of 60-65 AC/hour. Dust-free bedding consisting of aspen wood chips with approximate dimensions of 5×5×1 mm (ABEDD®-LAB & VET Service GmbH, Vienna, Austria, Product Code: LTE E-001) and additional nesting material were used. The cages including the bedding and the nesting material were changed weekly. The animals were fed autoclaved Teklad Global 19% Protein Extruded Diet (T.2019S.12) from Envigo RMS SARL and had access to sterile filtered and acidified (pH 2.5) tap water that was changed twice weekly. Feed and water were provided ad libitum. All materials were autoclaved prior to use. Animals were provided with a nutrient fortified water gel (DietGel® Recovery from ClearH2O, Maine, USA) from day 0 to day 45, which was changed every other day.
Groups of mice (n=10) bearing PAXF1657 tumors were dosed as outlined in Table 1. All doses were adjusted to 10 mL/kg. The control groups received oral doses of vehicle (pH 5 buffered 0.9% NaCl solution). Gemcitabine was administered i.v. and BAL101553 orally. When Gemcitabine and BAL0101553 were dosed in combination, Gemcitabine was administered first followed by a delay of 4 h for the BAL0101553 dosing.
Body weights and tumor volumes were recorded twice weekly until the end of the on day 60. These parameters were analyzed and graphically represented by using GraphPad-Prism™ 7 for Windows according to standard procedure. Tumor growth regression was defined as TV (at day 21)−TV (day 0)<0. […] Tumor free animals at the end of the study time (day 60) were assessed for residual PAXF1657 tumor cells by pathological methods. Skin und subcutaneous tissue including the tumor cell inoculation site from the flank region were resected, preserved in formalin and embedded in paraffin. Sections of approximately 5 μm were mounted on glass slides and stained with hematoxylin/eosin and were evaluated by a trained pathologist, to identify residual tumor cells at the site of injection, and were being reported as positive for the existence of residual tumor cells or as negative for a complete lack of any evidence of residual tumor cells.
Dosing schemes are outlined in Table 1.

[2] = system: patient-derived pancreatic tumour PAXF1657 xenograft; test: Antitumor efficacy and induction of cures in the patient-derived PAXF1657 pancreatic xenograft model; type: in vivo, female NMRI nu/nu mice; settings: for # of regressed tumors (total) / T/C: day 21 after first dose; for # of confirmed cures (total) / # of tumors with TV ≤ 4 mm^3 (total) / % cures: day 60 after first dose (endpoint); for tumor free animals / cures (in words): single agent treatment (BAL101553 even at 16 mg/kg; Gemcitabine SoC)
Method: The tumor xenografts are derived from surgical specimens from cancer patients. Following excision at surgery, tumor pieces were subcutaneously implanted into immunodeficient mice and are therefore referred to as patient tumor explants passaged subcutaneously in nude mice or as patient-derived tumor xenografts (PDX). Establishment and characterization of the PDXs was performed following their primary implantation into immunodeficient mice (passage 1). The tumor xenografts were passaged until establishment of a stable growth pattern. At that point, master stocks of early passage PDXs were frozen in liquid nitrogen. Usually, a particular stock batch is only used for a limited number of further passages.
Tumor fragments for implantation were obtained from xenografts in serial passage in female NMRI nu/nu mice (NMRI-Foxn1nu). After removal from donor mice, tumors were cut into fragments (3-4 mm edge length) and placed in PBS containing 10% penicillin/streptomycin. Recipient female mice (10 weeks old NMRI-Foxn1nu animals) were anesthetized by inhalation of isoflurane and received unilateral tumor implants of PAXF1657 tumors subcutaneously in the flank.
Mice and tumor implants were monitored daily until solid tumor growth was detectable in a sufficient number of animals. At randomization, the volume of growing tumors was determined. Tumors were measured (mm) in two dimensions using calipers, and volume was calculated using the formula: Tumor Volume (TV) (mm^3)=(width^2×length)/2. […] Sixteen days after tumor cell implantation, on Day 0 of the study, mice were randomized into groups of 10 animals, with group median tumor volumes of 106.6-109.2 mm^3 and body weights of 25.3-27.0 g.
The solution of BAL101553 with a concentration of 1.6 mg/ml for dosing at 16 mg/kg and as stock solution for the preparation of the other dosing solutions was prepared at the beginning of the study by dissolving 595.2 mg of the provided powder in 300 ml vehicle (stirring/vortexing/sonicating if necessary). The acidity of this solution was adjusted to pH 5 with a 1% sodium acetate solution; afterwards the total volume was adjusted to 372 ml by addition of the vehicle (99.7% (v/v) saline solution (0.9% (w/v) NaCl), 0.3% (v/v) sodium acetate, pH 5). The stock solution was sterile filtered and aliquoted into vials of each 12 ml that were stored at −20° C. One vial was thawed on each dosing day. For the 16 mg/kg dose, the solution was applied undiluted; for 8 mg/kg dose, one volume of the stock solution was diluted with one volume vehicle prior to application; and for 10 mg/kg dose, one volume of the stock solution was diluted with 0.6 volumes vehicle
The Gemcitabine dosing solution at a concentration of 24 mg/ml for dosing at 240 mg/kg was prepared once per week on the dosing day by dissolving 591.89 mg of Gemcitabine-HCl (Gemedac®, Medac Germany) corresponding to 264 mg active pharmaceutical ingredient in 11 ml of the vehicle (0.9% (w/v) NaCl). The dosing solution was administered in a dose volume of 10 ml/kg.
All doses were adjusted to 10 mL/kg. […] Gemcitabine was administered i.v. and BAL101553 orally.
The antitumor effect of the combination treatment with BAL101553 (prodrug of BAL27862) and gemcitabine was evaluated in the established in vivo subcutaneous patient-derived pancreatic mouse xenograft model PAXF1657. By using 3 different dosing regimens of BAL101553 as monotherapy, standard of care (SoC) dosing of gemcitabine monotherapy and the combination treatment of two different dosing regimens of BAL101553 with SoC gemcitabine, the anticancer effect of single agent treatments and of the combined treatments were determined and compared. […]

[3] = Pharmacokinetic profile in mouse plasma (LC-MS/MS), single agents versus combination; type: in vivo, PAXF1657 tumor bearing mice; settings: 10 minutes to 24 hours, BAL101553 oral, Gemcitabine 240 mg/kg i.v. 4 hours before BAL101553
Method: PAXF1657 tumor bearing mice of the identical strain were treated either with BAL101553 oral 10 mg/kg, Gemcitabine 240 i.v. mg/kg or with a combination of BAL101553 and Gemcitabine where Gemcitabine was administered 4 hours before BAL101553. Control animals received appropriate vehicle control. The mice were dosed until steady state was reached (BAL101553 was dosed d1-d3 and Gemcitabine was dosed on day 3, the doses used for the combination-treatment matched those used in the monotherapy). Blood was taken from every animal according to a determined schedule covering a time window of 10 minutes to 24 hours, processed for plasma and subsequently analyzed by LC-MS/MS for the determination of BAL27862 (parent drug of BAL101553) and Gemcitabine concentrations (ng/ml plasma). Data points represent mean values of ng/ml plasma concentration+/−SEM (n=3 animals). […]
The following calibration ranges in mouse plasma were applied: 1.00 to 500 ng/mL and 10 to 10000 ng/mL for BAL27862 and 10.0 to 10000 ng/mL for BAL101553 and Gemcitabine. Thus, the limit-of-quantitation (LOQ) was: 1 ng/mL for BAL27862 and 10.0 ng/mL for BAL101553 and Gemcitabine. […]

[4] = BAL101553 p.o. 8 mg/kg qd (h:4) x42
[5] = BAL101553 p.o. 10 mg/kg qd (h:4) x42
[6] = BAL101553 p.o. 16 mg/kg qd (h:4) x42
[7] = Gemcitabine i.v. 240 mg/kg qw (h:0) x6

N#CCCNc1nonc1-c1nc2ccccc2n1CC(=O)c1ccc(NC(=O)[C@@H](N)CCCCN)cc1 [BAL101553, (S)-2,6-Diamino-hexanoic acid [4-(2-{2-[4-(2-cyano-ethylamino)-furazan-3-yl]-benzoimidazol-1-yl}-acetyl)-phenyl]-amide]
Mortalities ([1]; female, NMRI nu/nu, mouse, in vivo, po, 8 mg/kg, 21 day): 0/10 | Mortalities ([1]; female, NMRI nu/nu, mouse, in vivo, po, 10 mg/kg, 21 day): 0/10 | Mortalities ([1]; female, NMRI nu/nu, mouse, in vivo, po, 16 mg/kg, 21 day): 0/10 | Body-weight change ([1]; mouse, in vivo, po, 8 mg/kg): 0.9 ± 0.8 g | Body-weight change ([1]; mouse, in vivo, po, 10 mg/kg): 1.0 ± 1.2 g | Body-weight change ([1]; mouse, in vivo, po, 16 mg/kg): 1.1 ± 0.9 g | # of regressed tumors (total) [2, 4]: 0 (10) | T/C [2, 4]: 0.52 | # of confirmed cures (total) [2, 4]: 0 (10) | # of tumors with TV ≤ 4 mm^3 (total) [2, 4]: 0 (20) | % cures [2, 4]: 0% | # of regressed tumors (total) [2, 5]: 0 (10) | T/C [2, 5]: 0.33 | # of confirmed cures (total) [2, 5]: 0 (10) | # of tumors with TV ≤ 4 mm^3 (total) [2, 5]: 0 (10) | % cures [2, 5]: 0% | # of regressed tumors (total) [2, 6]: 0 (10) | T/C [2, 6]: 0.28 | # of confirmed cures (total) [2, 6]: 0 (10) | # of tumors with TV ≤ 4 mm^3 (total) [2, 6]: 0 (10) | % cures [2, 6]: 0% | tumor free animals / cures (in words) [2]: did neither lead to tumor free animals

Nc1ccn([C@@H]2O[C@H](CO)[C@@H](O)C2(F)F)c(=O)n1 [Gemcitabine, gemcitabine, reference compound]
Mortalities ([1]; Gemcitabine i.v. 240 mg/kg qw (h:0) x6, day 21 after first dose, 1 animal culled on day 8 (body-weight loss of more than 20%)): 1/10* | Body-weight change ([1]; mouse, in vivo, iv, 240 mg/kg): 0.9 ± 0.8 g | # of regressed tumors (total) [2, 7]: 4 (10) | T/C [2, 7]: 0.03 | # of confirmed cures (total) [2, 7]: 0 (10) | # of tumors with TV ≤ 4 mm^3 (total) [2, 7]: 1 (10) | % cures [2, 7]: 0% | tumor free animals / cures (in words) [2]: did not lead to tumor free animals (no cures) | tumor regression (in words) ([2]; single agent treatment (BAL101553 even at 16 n/kg; Gemcitabine SoC)): induced regression in some of the animals | plasma concentrations, single agents versus combination [3]: did not change significantly

N#CCCNc1nonc1-c1nc2ccccc2n1CC(=O)c1ccc(N)cc1 [BAL27862, 3-(4-{1-[2-(4-Amino-phenyl)-2-oxo-ethyl]-1H-benzoimidazol-2-yl}-furazan-3-ylamino)-propionitrile]
plasma concentrations, single agents versus combination [3]: did not change significantly
